From publication doi:10.1101/2022.03.28.485913v1, “A unified in vitro to in vivo fluorescence lifetime screening platform yields amyloid β aggregation inhibitors” (biorxiv, 2022)

Experiments:
[1] = target: T1, amyloid β (1-42) (Aβ42) (Homo sapiens, UniProt P05067); assay: nanoFLIM aggregation assay, TEM; format: biochemical; conditions: 10 μM Aβ42-488, 50% labelled, 10 or 50 μM compound; ThT assay masked by compound fluorescence
T1 construct: gene APP; Amyloid-beta 1-42 peptide cut from APP, 42 residues; synthetic, unlabelled or partly mixed with N-terminally HiLyte Fluor 488 labelled peptide; recombinant 15N peptide (AlexoTech) for NMR; aggregating, starting from monomer
T1 sequence (P05067 672-713): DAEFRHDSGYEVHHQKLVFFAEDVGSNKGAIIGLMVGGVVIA

[2] = target: T1, amyloid β (1-42) (Aβ42); assay: nanoFLIM aggregation kinetics, fluorescence lifetime in microfluidic droplets, initial rates; format: biochemical

COC(=O)c1ccccc1NC(=O)c1cc(-c2ccccc2)nc2ccccc12 [MJ001]
nanoFLIM aggregation assay, TEM [1]: MJ001 and MJ042 (Fig. 2a,b), showed weaker, yet significant inhibitory activity

O=C(O)c1cc(-c2cccc(Br)c2)nc2ccc([N+](=O)[O-])cc12 [MJ040]
IC50 [2]: 4.3 ± 1.3 µM

O=C(O)c1cc(-c2cc(F)cc(Cl)c2)nc2ccccc12 [MJ042]
nanoFLIM aggregation assay, TEM [1]: MJ001 and MJ042 (Fig. 2a,b), showed weaker, yet significant inhibitory activity
